Data as given in ChEMBL document CHEMBL5375990, “Optimization of Pharmacokinetic and In Vitro Safety Profile of a Series of Pyridine Diamide Indirect AMPK Activators” (J Med Chem, 2023).
The source made the active and inactive calls. No cut-off for these calls is given here.

Assays:
[1] = Activation of AMPK in human HepG2 cells incubated for 2 hrs; assay type: cell-based; details: HepG2, 2 h
[2] = molecular target: 5'-AMP-activated protein kinase; assay: Activation of AMPK in mouse C2C12 cells incubated for 2 hrs; assay type: cell-based
HepG2 = assay: Inhibition of mitochondrial function in human HepG2 cells assessed as reduction in ATP production; assay type: functional, cell-based
hERG (KCNH2) = hERG (KCNH2) (Homo sapiens, UniProt Q12809); assay: Inhibition of hERG at 10 uM relative to control; assay type: toxicity
Sequence of hERG (KCNH2) (Q12809 whole entry): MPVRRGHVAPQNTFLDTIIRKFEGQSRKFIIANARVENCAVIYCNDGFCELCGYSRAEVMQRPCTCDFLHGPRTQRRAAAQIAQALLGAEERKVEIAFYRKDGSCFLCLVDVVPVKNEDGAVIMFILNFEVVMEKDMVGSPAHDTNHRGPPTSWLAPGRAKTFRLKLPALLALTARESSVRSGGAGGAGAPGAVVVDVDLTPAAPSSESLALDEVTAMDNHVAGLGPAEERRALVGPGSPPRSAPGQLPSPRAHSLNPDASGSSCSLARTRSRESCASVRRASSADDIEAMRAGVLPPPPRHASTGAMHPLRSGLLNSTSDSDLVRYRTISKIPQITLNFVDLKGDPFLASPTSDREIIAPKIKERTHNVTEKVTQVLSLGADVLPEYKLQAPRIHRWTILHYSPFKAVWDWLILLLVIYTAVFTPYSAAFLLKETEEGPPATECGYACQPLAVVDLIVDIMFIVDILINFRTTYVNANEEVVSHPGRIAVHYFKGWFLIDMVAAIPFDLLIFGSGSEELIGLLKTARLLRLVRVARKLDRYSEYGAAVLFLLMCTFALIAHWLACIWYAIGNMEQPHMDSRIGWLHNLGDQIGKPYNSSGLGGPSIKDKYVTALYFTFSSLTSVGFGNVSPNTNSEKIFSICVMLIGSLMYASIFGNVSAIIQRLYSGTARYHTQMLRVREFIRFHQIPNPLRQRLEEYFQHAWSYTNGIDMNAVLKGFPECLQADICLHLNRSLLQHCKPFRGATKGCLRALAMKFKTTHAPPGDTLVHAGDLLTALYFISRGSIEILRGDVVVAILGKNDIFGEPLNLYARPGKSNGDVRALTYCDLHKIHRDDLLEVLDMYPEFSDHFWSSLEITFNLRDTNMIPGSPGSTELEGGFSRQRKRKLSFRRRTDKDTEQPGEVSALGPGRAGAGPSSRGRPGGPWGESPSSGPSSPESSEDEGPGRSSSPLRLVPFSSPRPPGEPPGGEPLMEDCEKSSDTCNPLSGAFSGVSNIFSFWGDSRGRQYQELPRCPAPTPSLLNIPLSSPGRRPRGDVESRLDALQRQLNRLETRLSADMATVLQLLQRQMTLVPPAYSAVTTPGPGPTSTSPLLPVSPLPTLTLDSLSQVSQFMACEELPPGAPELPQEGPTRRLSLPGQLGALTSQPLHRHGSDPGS

Cytochrome P450 3A4 [3] = molecular target: T1, Cytochrome P450 3A4 (Homo sapiens, UniProt P08684); assay: Inhibition of CYP3A4 (unknown origin); assay type: ADME
T1 sequence (P08684 whole entry): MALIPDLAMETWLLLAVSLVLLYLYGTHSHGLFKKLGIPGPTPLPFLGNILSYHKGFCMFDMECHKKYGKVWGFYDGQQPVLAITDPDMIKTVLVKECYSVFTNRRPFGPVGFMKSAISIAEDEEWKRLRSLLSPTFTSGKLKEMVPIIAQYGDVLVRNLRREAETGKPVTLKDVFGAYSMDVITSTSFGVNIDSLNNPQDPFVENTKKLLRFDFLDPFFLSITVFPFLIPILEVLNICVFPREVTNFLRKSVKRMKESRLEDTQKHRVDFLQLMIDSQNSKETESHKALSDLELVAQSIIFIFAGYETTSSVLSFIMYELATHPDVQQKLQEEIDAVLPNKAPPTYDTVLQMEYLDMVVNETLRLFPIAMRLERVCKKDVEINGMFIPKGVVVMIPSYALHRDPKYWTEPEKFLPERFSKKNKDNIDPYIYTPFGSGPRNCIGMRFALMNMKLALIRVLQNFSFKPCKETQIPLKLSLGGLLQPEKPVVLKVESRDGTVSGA

Cytochrome P450 3A4 [4] = molecular target: T1, Cytochrome P450 3A4; assay: Inhibition of CYP3A4 (unknown origin) in presence of NADPH; assay type: ADME
[5] = Microsomal stability in rat liver microsome assessed as half life; assay type: ADME; details: liver microsomes
[6] = Microsomal stability in human liver microsome assessed as half life; assay type: ADME, microsomes; details: for half-life: liver microsomes
[7] = Clearance in rat; assay type: ADME; details: in vivo
[8] = Dissociation constant, pKa of compound; assay type: physicochemical
A549 = assay: Cytotoxicity against human A549 cells assessed as reduction in cell growth; assay type: functional, cell-based
NCI-H1299 = assay: Cytotoxicity against human NCI-H1299 cells assessed as reduction in cell growth; assay type: functional, cell-based
[9] = Half life in rat at 5 mg/kg, po or 1 mg/kg, iv measured upto 10 hrs; assay type: ADME, organism-based; details: in vivo
[10] = Volume of distribution at steady state in rat at 5 mg/kg, po or 1 mg/kg, iv measured upto 10 hrs; assay type: ADME, organism-based; details: in vivo
[11] = AUC in rat at 5 mg/kg, po measured upto 10 hrs; assay type: ADME, organism-based; parameters: time < 10 hrs, dose 5 mg/kg, route po; details: in vivo
[12] = Oral bioavailability in rat at 5 mg/kg measured upto 10 hrs; assay type: ADME, organism-based; details: in vivo
[13] = Drug concentration in C57BL/6J mouse plasma at 10 mg/kg, po measured at 30 mins; assay type: ADME, organism-based
Mus musculus [14] = assay: In vivo activation of AMPK in C57BL/6J mouse assessed as increase in AMPK phosphorylation in liver at 10 mg/kg, po measured for 30 mins by Western blot analysis; assay type: functional, organism-based
Mus musculus [15] = assay: In vivo activation of AMPK in C57BL/6J mouse assessed as increase ACC substrate level in liver at 10 mg/kg, po measured for 30 mins by Western blot analysis; assay type: functional, organism-based
Mus musculus [16] = assay: Antidiabetic activity against po dosed db/db mouse model of type 2 diabetes assessed as improvement in glucose handling administered for 15 days and measured on day 13 by OGTT test; assay type: functional, organism-based; details: dose 10-15 mg/kg, time 13.0 day
Mus musculus [17] = assay: Antidiabetic activity against db/db mouse model of type 2 diabetes assessed as reduction in blood glucose AUC at 15 mg/kg, po administered for 15 days and measured on day 13 by OGTT test; assay type: functional, organism-based; details: time 13.0 day
Mus musculus [18] = assay: Antidiabetic activity against po dosed db/db mouse model of type 2 diabetes assessed as reduction in blood glucose level administered for 15 days by OGTT test; assay type: functional, organism-based; details: dose 10-15 mg/kg, time 15.0 day
Mus musculus [19] = assay: Antidiabetic activity against po dosed db/db mouse model of type 2 diabetes assessed as reduction in insulin level administered for 15 days by OGTT test; assay type: functional, organism-based; details: dose 10-15 mg/kg, time 15.0 day
[20] = molecular target: Voltage-gated inwardly rectifying potassium channel KCNH2 (Homo sapiens, UniProt Q12809); assay: Inhibition of hERG; assay type: toxicity
Sequence of Voltage-gated inwardly rectifying potassium channel KCNH2 (Q12809 whole entry): as the sequence (Q12809 whole entry) above

| Structure (SMILES) | EC50 [1] [nM] | EC50 [2] [nM] | IC50 (HepG2) [nM] | inhibition at 10 µM (hERG (KCNH2)) [%] | IC50 (Cytochrome P450 3A4 [3]) [nM] | IC50 (Cytochrome P450 3A4 [4]) [nM] | half-life [5] [h] | half-life [6] [h] | clearance [7] [mL/min/kg] | also measured |
| --- | --- | --- | --- | --- | --- | --- | --- | --- | --- | --- |
| COc1ccc(C(=O)C2CCN(C(=O)c3ccc(C(=O)N[C@H]4CCN(Cc5ccc(C#N)cc5)[C@H](C(F)(F)F)C4)cn3)CC2)cc1 | 464 |  |  |  |  |  |  |  |  |  |
| COc1ccc(C(=O)C2CCN(C(=O)c3ccc(C(=O)N[C@H]4CCN(Cc5ccc(C#N)cc5)C[C@@H]4F)cn3)CC2)cc1 (relative stereo) | 62 | 161 | 1170 | 69.2 | > 10000 | > 10000 | 1.47 | 1.9 | 17 | pKa [8]: 4.9; IC50 (A549): > 20000 nM; IC50 (NCI-H1299): > 20000 nM; half-life [9]: 3.1 h; Vdss [10]: 2.2 L/kg; AUC at 10 h [11]: 2350 ng·h/mL; bioavailability [12]: 55%; concentration at 0.5 h [13]: 638 ng/mL; Activity (Mus musculus [14]): Active; Activity (Mus musculus [15]): Active; Activity (Mus musculus [16]): Dose-Dependent Effect; Activity (Mus musculus [17]): Active; Activity (Mus musculus [18]): Dose-Dependent Effect; Activity (Mus musculus [19]): Dose-Dependent Effect |
| N#Cc1ccc(CN2CC[C@H](NC(=O)c3ccc(C(=O)N4CCC(C(=O)c5ccc(-n6cccn6)cc5)CC4)nc3)[C@@H](F)C2)cc1 | 29 | 87 | 887 | 98.4 |  |  | 1.75 |  | 19 | Stability ([6]; microsomes): Stable |
| COc1ccc(C(=O)C2CCN(C(=O)c3cc(C)c(C(=O)NC4CCN(Cc5ccc(OC)c(F)c5)CC4)cn3)CC2)cc1 | 14 | 27 | 976 | 58.4 |  |  | 0.9 | 1.12 | 33 |  |
| COCCN(C(=O)c1ccc(C(=O)N2CCC(C(=O)c3ccc(OC)cc3)CC2)nc1)C1CCN(Cc2ccc(C#N)cc2)CC1 | 78 | 654 | 1470 | 26.5 |  |  |  |  |  |  |
| COc1ccc(C(=O)C2CCN(C(=O)c3ccc(C(=O)N[C@@H]4CCN(Cc5ccc(C#N)cc5)C[C@@H]4C)cn3)CC2)cc1 | 22 | 82 | 941 | 46.9 | 10000 | 900 | 0.15 | 0.383 |  |  |
| COc1ccc(CN2CCC(NC(=O)c3cnc(C(=O)N4CCC(C(=O)c5ccc(OC)cc5)CC4)cc3C)CC2)cc1 | 25 | 84 | 3370 | 62.5 |  |  | 0.917 | 4.72 | 40 |  |
| COc1ccc(C(=O)C2CCN(C(=O)c3ccc(C(=O)N(C)C4CCN(Cc5ccc(C#N)cc5)CC4)cn3)CC2)cc1 | 21 |  | 28 |  |  |  |  |  | 74 |  |
| COc1ccc(C(=O)C2CCN(C(=O)c3ccc(C(=O)N[C@@H]4CCN(Cc5ccc(C#N)cc5)C[C@@H]4F)cn3)CC2)cc1 | 47 | 193 | 800 | 67.4 | > 10000 | > 10000 | 4.95 | 8.23 | 33 | pKa [8]: 4.9 |
| COc1ccc(C(=O)C2CCN(C(=O)c3cc(C(F)(F)F)c(C(=O)NC4CCN(Cc5ccc(C#N)cc5)CC4)cn3)CC2)cc1 | 10 | 28 | 456 |  | > 10000 | 2800 | 0.733 | 1.48 | 35 |  |
| COc1ccc(C(=O)C2CCN(C(=O)c3ccc(C(=O)NC4CCN(Cc5ccc(C#N)cc5)CC4(F)F)cn3)CC2)cc1 (centres undefined) | 28 | 50 | 256 | 65 | > 10000 | > 10000 | 2.48 | 1.23 |  | pKa [8]: 2.5 |
| COc1ccc(C(=O)C2CCN(C(=O)c3cc(C)c(C(=O)NC4CCN(Cc5ccc(C#N)cc5)CC4)cn3)CC2)cc1 | 22 | 110 | 1460 | 59.8 | > 10000 | > 10000 | 0.7 | 1.72 | 38 |  |
| COc1ccc(C(=O)C2CCN(C(=O)c3ccc(C(=O)NC4CCN(Cc5ccc(C#N)cc5)CC4(C)C)cn3)CC2)cc1 (centres undefined) | 32 | 598 | 390 |  |  |  |  |  | 40 |  |
| COc1ccc(C(=O)C2CCN(C(=O)c3ccc(C(=O)NC4CCN(Cc5ccc(C#N)cc5)CC4)cn3)CC2)cc1 | 31 | 137 | 2820 |  | > 10000 | > 10000 |  |  | 150 | IC50 [20]: 4700 nM; pKa [8]: 7.4 |
| COc1ccc(C(=O)C2CCN(C(=O)c3ccc(C(=O)N[C@@H]4CCN(Cc5ccc(C#N)cc5)C[C@@H]4C(F)(F)F)cn3)CC2)cc1 | 17 | 143 | 466 |  |  |  |  |  | 62 |  |
| N#Cc1ccc(CN2CC[C@H](NC(=O)c3ccc(C(=O)N4CCC(C(=O)c5ccc(N6CCOCC6)cc5)CC4)nc3)[C@@H](F)C2)cc1 | 70 | 217 | 2690 |  |  |  | 1.22 | 2.63 |  |  |
| COc1ccc(C(=O)C2CCN(C(=O)c3cc(F)c(C(=O)NC4CCN(Cc5ccc(C#N)cc5)CC4)cn3)CC2)cc1 | 1 | 9 | 31 |  |  |  |  |  |  |  |
| COc1ccc(C(=O)C2CCN(C(=O)c3ccc(C(=O)N[C@H]4CCN(Cc5ccc(C#N)cc5)C[C@@H]4C)cn3)CC2)cc1 | 65 | 236 | 983 |  |  |  |  |  | 145 |  |
